Source: the supplement of paper PMC10331698
± gives the standard deviation of the averaged measurements.

Experiments:
Assay in all cases: level (log10 ratio to DMSO vehicle control); higher = higher biomarker level / cell amount than vehicle control
Conditions in all cases: in DMSO
[1] = compound: NC(=O)C(F)(F)C(F)(F)C(F)(F)C(F)F
Method: (§1)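 BioMAP Diversity Plus panel of 12 human primary cell co-culture systems (3C, 4H, LPS, SAg, BT, BF4T, BE3C, CASM3C, HDF3CGF, KF3CT, MyoF, Mphg). Compounds were added 1 h before stimulation and left for 24 h (MyoF 48 h; BT 72 h for soluble read-outs or 6 d for IgG). Biomarkers were read by ELISA, cytotoxicity by SRB, PBMC viability and proliferation by Alamar Blue. Each well value was divided by the mean of 8 DMSO control wells on the same plate and log10 transformed; duplicate blinded samples were tested at 4 concentrations.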

[2] = compound: FC(F)(F)C(F)(F)CNCC(F)(F)C(F)(F)F [Bis(1H,1H-perfluoropropyl)amine]
Method: as §1

Heptafluorobutyl iodide = compound: FC(F)(F)C(F)(F)C(F)(F)CI [Heptafluorobutyl iodide]
Method: as §1

[3] = compound: FC(F)(F)C(F)(F)C(F)(F)C(F)(F)C(F)(F)C(F)(F)C(F)(F)I [1-Iodopentadecafluoroheptane]
Method: as §1

[4] = compound: O=S(=O)(O)C(F)(F)C(F)(F)C(F)(F)C(F)(F)C(F)(F)C(F)(F)C(F)(F)C(F)(F)C(F)(F)C(F)(F)F [Sodium perfluorodecanesulfonate]
Method: as §1

Octafluoroadipamide = compound: NC(=O)C(F)(F)C(F)(F)C(F)(F)C(F)(F)C(N)=O [Octafluoroadipamide]
Method: as §1

Row | Test System | level (log10) ([1]; 6700 nM) | level (log10) ([1]; 20000 nM) | level (log10) ([1]; 60000 nM) | level (log10) ([2]; 6700 nM) | level (log10) ([2]; 20000 nM) | level (log10) ([2]; 60000 nM) | level (log10) (Heptafluorobutyl iodide; 6700 nM) | level (log10) (Heptafluorobutyl iodide; 20000 nM) | level (log10) (Heptafluorobutyl iodide; 60000 nM) | level (log10) ([3]; 6700 nM) | level (log10) ([3]; 20000 nM) | level (log10) ([4]; 1500 nM) | level (log10) ([4]; 4400 nM) | level (log10) ([4]; 13000 nM) | level (log10) ([4]; 40000 nM) | level (log10) (Octafluoroadipamide; 6700 nM) | level (log10) (Octafluoroadipamide; 20000 nM) | level (log10) (Octafluoroadipamide; 60000 nM)
1 | SAg:PBMC Cytotoxicity | 0.018 ± 0.016 | -0.008 ± 0.011 | 0.0425 ± 0.067 | 0.01 ± 0.013 | -0.011 ± 0.0028 | -0.0055 ± 0.037 | -0.015 ± 0.025 | 0.0035 ± 0.005 | 0.003 ± 0.0099 | -0.0165 ± 0.028 | 0.0265 ± 0.026 | 0.008 ± 0.027 | -0.002 ± 0.0071 | -0.037 ± 0.0028 | 0.017 ± 0.0071 | 0.004 ± 0.014 | -0.0095 ± 0.0021 | 0.01 ± 0.027
2 | SAg:SRB | -0.0225 ± 0.0035 | -0.02 ± 0.0028 | -0.015 ± 0.021 | -0.012 ± 0.0028 | -0.001 ± 0.017 | 0.0035 ± 0.0035 | -0.007 ± 0.0099 | -0.001 ± 0.0042 | 0.002 ± 0.011 | -0.007 ± 0.0042 | 0.0025 ± 0.0021 | -0.002 ± 0.0057 | -0.0015 ± 0.00071 | -0.016 ± 0.0014 | -0.078 ± 0.0042 | -0.011 ± 0.014 | -0.0065 ± 0.022 | -0.0025 ± 0.0064
